Data set [1] addresses Cathepsin B1 (EC 3.4.22.1 from bovine spleen) (Bos taurus, UniProt P07688). The conditions noted are these: for Stability (Arbitrary units) Cath B 4 h: Cathepsin B.
Data set [2] addresses DR4Dw4 (DRA1*0101 DRB1*0401) (Homo sapiens, UniProt P01903+P01911, A100K/A169T/F76Y/I96L/K127E/L162R/M171V/N62H/P40V/Q125Y/R42H/S133A/S149N/S66Y/V115G/V209L/W38E). In words: Competitive binding to MHC-II protein DR4Dw4. How it is done: (§1) Interaction mixtures lacking the peptidomimetic compound and both peptide mimetic compound and MHC-II were used as positive and negative controls, respectively. All interaction mixtures were set up in duplicates and were incubated for 16 hours at room temperature.
(§2) After washing with PBS, 60 μl of the MHC-II-compound interaction mixtures were transferred from the interaction plate to the appropriate wells of the capture plate and incubated for 2 h at 4° C. The wells were washed six times with 200 μl/well of cooled (4 to 8° C.) 1×DELFIA wash (Wallac-ADL-GmbH, Freiburg), incubated with 100 μl of cooled Europium-streptavidin conjugate (Wallac-ADL-GmbH, Freiburg; diluted 1/1000 with DELFIA assay buffer) for 30 minutes at 4° C., again washed six times with cooled 1×DELFIA wash and, finally, incubated with 200 μl cooled DELFIA enhancement solution (Wallac-ADL-GmbH, Freiburg) for one hour at room temperature before reading the time-resolved europium fluorescence at λex Eu^3+: 340 nm and λem Eu^3+: 613 (615) nm (Wallac Victor^2 1420 Multilabel Counter, Wallac-ADL-GmbH, Freiburg).

Data set [3] addresses DR4Dw14 (DRA1*0101 DRB1*0404) (Homo sapiens, UniProt P01903+P01911, A100R/A169T/F76Y/I96L/K127E/L162R/M171V/N62H/P40V/Q125Y/R42H/S133A/S149N/S66Y/V209L/W38E). In words: Competitive binding to MHC-II protein DR4Dw14. How it is done: as §1, §2
A short description of data set [4]: Stability of compounds in human blood plasma. Type of data set: in vitro ADME. How it is done: (§3) The stability of the peptidomimetic compounds was determined in rat (Charles River Laboratories, Sulzfeld), mouse (Charles River Laboratories, Sulzfeld) and human (Bayerisches Rotes Kreuz, München) blood plasma (E. R. Garrett and M. R. Gardner, J Pharmaceutical Sciences 71 (1982) 14-25).
(§4) Compound stock solutions were diluted into blood plasma to give a final compound concentration of 5 μM and the mixtures were incubated at 37° C. At 0, 6 and 24 hours 1 ml samples were drawn and the plasma proteins were precipitated by the addition of 3 ml acetonitrile p.a. and whirlmixing. The precipitate was pelleted by centrifugation at 2000 g for 5 minutes. The supernatant was evaporated off to dryness and the residue was reconstituted in 400 μl 50% acetonitrile, 0.1% TFA in water.
(§5) PBS controls were prepared for unstable compounds accordingly.

The target in data set [5] is Cathepsin D (EC 3.4.23.5 from bovine spleen) (Bos taurus, UniProt P80209). How it is done:
The stability of the peptidomimetic compounds towards lysosomal degradation was examined by incubation with Cathepsin B1 (EC 3.4.22.1 from bovine spleen; Sigma-Aldrich, Taufkirchen; dissolved at 10000 U/l in ddH2O) and D (EC 3.4.23.5 from bovine spleen; Sigma-Aldrich, Taufkirchen; dissolved at 10000 U/l in ddH2O) for four hours at 37° C. using a compound concentration of 50 μM and an enzyme/substrate ratio of 0.4 U/μmol. The samples contained 25 ppm 4-isopropyl benzyl alcohol (IPBA; Sigma-Aldrich, Taufkirchen) as internal standard.
Assay buffer was prepared by adding 35 μl of a 1% IPBA in DMSO solution and 28 μl of a 10000 U/l Cathepsin B1 or Cathepsin D stock solution to 14 ml of 100 mM sodium acetate, 1 mM EDTA, 1 mM DTT, pH 5.00 or 100 mM sodium acetate, pH 4.50, respectively. 8.8 μl of a 5 mM (or 4.4 μl of a 10 mM) compound stock solution (in 10% DMSO/water) were placed into a 1.5 ml Eppendorf tube. The reaction was started by adding 875 μl fully supplemented assay buffer to each tube, whirlmixing and incubation at 37° C. At 0 and 4 hours 400 μl samples were taken and the enzyme was inactivated by addition of 40 μl […] TFA aq. The samples were kept frozen at −20° C. until analysis by RP-HPLC (200 μl injection volume; Nucleosil 100-5 C18, 12.5×4.6 cm; Gradient: 20-50% acetonitrile in 30 min).
Compounds co-eluting with the internal standard during RP-HPLC analysis were tested without the standard as Example 16.

In data set [6] the target is DR1 (DRA1*0101 DRB1*0101) (Homo sapiens, UniProt P01903+P01911, A100R/D57E/F55L/F60I/F76Y/I96L/L162R/M171V/P40L/Q125E/R42F/V115G/Y59C). In words: Competitive binding to MHC-II protein DR1. The conditions noted are these: Protein binding IC50 (nM) 0101, 0101. On the procedure: as §1, §2
Data set [7] can be described thus: Stability of compounds in mouse blood plasma. Type of data set: in vitro ADME. How it is done: as §3, §4, §5
Data set [8] in a line: Stability of compounds in rat blood plasma. Type of data set: in vitro ADME. On the procedure: as §3, §4, §5
Data set [9] concerns T-cell proliferation, DR14-LN.
[10] abbreviates: within 4 hours, 37° C., enzyme activity control.
Where [11] appears, read: 0404, read-out: Protein binding IC50 (nM) 0404.

Experimental findings from patent publication US7629318B2, “Immunosuppressant compounds, methods and uses related thereto” (priority 2002, dated 2009) are described below.

Values joined by “and” are separate entries in the source; they are usually repeats but may differ in a detail not shown here. Identical values can stand only once. Like-named read-outs stand apart in the source and are kept apart here. Square brackets hold non-standard residues; d marks the D form. Peptide text beside a SMILES is read from it. * marks the point of attachment. N(Me)CH2CH2Ph = CN(CCc1ccccc1)*; Tic = O=C(O)[C@@H]1Cc2ccccc2CN1; Cha = N[C@@H](CC1CCCCC1)C(=O)O; X4 = OCCOCCN(CCc1ccccc1)*; Nle = CCCC[C@H](N)C(=O)O; X2 = OCCOCCN(Cc1ccccc1)*; X6 = OCCN(CCc1ccccc1)*

In the case of `CSCC[C@H](NC(=O)[C@H](C)NC(=O)[C@H](CCCN=C(N)N)NC(=O)[C@H](CC1CCCCC1)NC(C)=O)C(=O)N[C@@H](C)C(=O)N[C@@H](CO)C(=O)N[C@@H](CC(C)C)C(N)=O` [Compound P3, Ac-Cha-RAMASL-NH2, reference compound] (Ac-[Cha]RAMASL-NH2), the “degradation by Cathepsin B1” value in data set [1] (setting [10]) is recorded as “completely degraded”.
By IC50 is commonly meant the point on the concentration scale where inhibition reaches its midpoint. In data set [2], `CCCC[C@H](NC(=O)[C@@H]1Cc2ccccc2CN1C(=O)[C@H](CCCNC(=N)N)NC(=O)[C@H](CC1CCCCC1)NC(C)=O)C(=O)N(CCO)CCc1ccccc1` [Compound P81, Ac-Cha-Arg-Tic-Nle-N(CH2CH2OH)CH2CH2Ph] (Ac-[Cha]R[Tic][Nle]-X6) showed an IC50 of 22 µM. The “Stability (Arbitrary units) Cath B 4 h” value in [1] stood at 99 Arbitrary units. In data set [3] (setting [11]), the IC50 stood at 20000 nM. Moreover, in data set [4], the “Stability (Arbitrary units) Human 6 h” value came out at 104 Arbitrary units and the “Stability (Arbitrary units) Human 24 h” value was 109 Arbitrary units. The “Stability (Arbitrary units) Cath D 4 h” value in [5] was 99 Arbitrary units. The IC50 in data set [6] was determined as 3300 nM. In data set [7], the “Stability (Arbitrary units) Mouse 6 h” value came to 107 Arbitrary units and the “Stability (Arbitrary units) Mouse 24 h” value is given as 70 Arbitrary units. In addition, in data set [8], the “Stability (Arbitrary units) Rat 6 h” value is 88 Arbitrary units and the “Stability (Arbitrary units) Rat 24 h” value stood at 76 Arbitrary units.
In the case of `CSCC[C@H](NC(=O)[C@@H]1Cc2ccccc2CN1C(=O)[C@H](CCCNC(=N)N)NC(=O)[C@H](CC1CCCCC1)NC(C)=O)C(=O)N(C)CCc1ccccc1` [Compound P84, Ac-Cha-Arg-Tic-Met-N(Me)CH2CH2Ph] (Ac-[Cha]R[Tic]M-{N(Me)CH2CH2Ph}), the “Stability (Arbitrary units) Cath B 4 h” value in [1] is given as 69 Arbitrary units. For the same molecule, the IC50 in data set [3] (setting [11]) came out at 14000 nM. In data set [4], the “Stability (Arbitrary units) Human 6 h” value amounted to 131 Arbitrary units and the “Stability (Arbitrary units) Human 24 h” value amounted to 131 Arbitrary units. Further, the “Stability (Arbitrary units) Cath D 4 h” value in [5] was found to be 101 Arbitrary units. This molecule had an IC50 in data set [6] of 900 nM. Besides, in [7], the “Stability (Arbitrary units) Mouse 6 h” value stood at 111 Arbitrary units and the “Stability (Arbitrary units) Mouse 24 h” value was determined as 53 Arbitrary units. In [8], the “Stability (Arbitrary units) Rat 6 h” value was found to be 104 Arbitrary units and the “Stability (Arbitrary units) Rat 24 h” value is listed as 99 Arbitrary units.
With `CSCC[C@H](NC(=O)[C@@H]1Cc2ccccc2CN1C(=O)[C@H](CCCNC(=N)N)NC(=O)[C@H](CC1CCCCC1)NC(C)=O)C(=O)N(CCO)CCc1ccccc1` [Compound P85, Ac-Cha-Arg-Tic-Met-N(CH2CH2OH)CH2CH2Ph] (Ac-[Cha]R[Tic]M-X6), the IC50 in data set [2] came out at 13 µM; in data set [3] (setting [11]), 31000 nM; in data set [6], 1800 nM. Moreover, the “Stability (Arbitrary units) Cath B 4 h” value in [1] is 108 Arbitrary units. Besides, the “Stability (Arbitrary units) Human 24 h” value in data set [4] was determined as 129 Arbitrary units. For the same molecule, the “Stability (Arbitrary units) Cath D 4 h” value in data set [5] was 104 Arbitrary units. In addition, the “Stability (Arbitrary units) Mouse 6 h” value in [7] is reported as 98 Arbitrary units. The “Stability (Arbitrary units) Mouse 24 h” value in data set [7] was determined as 57 Arbitrary units. The “Stability (Arbitrary units) Rat 6 h” value in data set [8] came out at 111 Arbitrary units. Moreover, the “Stability (Arbitrary units) Rat 24 h” value in data set [8] was 71 Arbitrary units.
For the molecule `CSCC[C@H](NC(=O)[C@@H]1Cc2ccccc2CN1C(=O)[C@H](CCCNC(=N)N)NC(=O)[C@H](CC1CCCCC1)NC(C)=O)C(=O)N(CCOCCO)CCc1ccccc1` [Compound P96, Ac-Cha-Arg-Tic-Met-N(CH2CH2Ph)CH2CH2OCH2CH2OH] (Ac-[Cha]R[Tic]M-X4), the IC50 in [2] turned out to be 5.9 µM; in [3] (Protein binding IC50 (nM) 0404, 0404), 7400 nM; in data set [6], 1000 nM. In data set [1], the “Stability (Arbitrary units) Cath B 4 h” value worked out at 91 Arbitrary units. The “Stability (Arbitrary units) Human 6 h” value in data set [4] (human plasma, 6 h) came out at 117 Arbitrary units. For the same molecule, in [4] (human plasma, 24 h), the “Stability (Arbitrary units) Human 24 h” value turned out to be 64 Arbitrary units. For the same molecule, in [5], the “Stability (Arbitrary units) Cath D 4 h” value stood at 106 Arbitrary units. Further, the “Stability (Arbitrary units) Mouse 6 h” value in [7] (mouse plasma, 6 h) was 108 Arbitrary units. The “Stability (Arbitrary units) Mouse 24 h” value in [7] (mouse plasma, 24 h) stood at 82 Arbitrary units. Further, the “Stability (Arbitrary units) Rat 6 h” value in data set [8] (rat plasma, 6 h) came to 83 Arbitrary units. In addition, the “Stability (Arbitrary units) Rat 24 h” value in data set [8] (rat plasma, 24 h) stood at 45 Arbitrary units.
As to `CSCC[C@H](NC(=O)[C@@H]1Cc2ccccc2CN1C(=O)[C@H](CCCNC(=N)N)NC(=O)[C@H](CC1CCCCC1)NC(C)=O)C(=O)N(CCOCCO)Cc1ccccc1` [Compound P99, Ac-Cha-Arg-Tic-Met-N(Bn)CH2CH2OCH2CH2OH] (Ac-[Cha]R[Tic]M-X2), the “Stability (Arbitrary units) Cath B 4 h” value in [1] is 106 Arbitrary units. Moreover, the IC50 in data set [3] (setting [11]) worked out at 1900 nM. Besides, in data set [4], the “Stability (Arbitrary units) Human 6 h” value was 104 Arbitrary units. Moreover, the “Stability (Arbitrary units) Cath D 4 h” value in data set [5] stood at 107 Arbitrary units. Further, the “Immunsupressive assays DR14-LN (Max) % Inhibition” value in [9] (maximal inhibition) amounted to 100%. Besides, in [9] (read-out: Immunsupressive assays DR14-LN (IC50)), the IC50 turned out to be 105 µM. Besides, the IC50 in [6] is 690 nM and 560 nM. In [7], the “Stability (Arbitrary units) Mouse 6 h” value was determined as 71 Arbitrary units and the “Stability (Arbitrary units) Mouse 24 h” value is on record as 13 Arbitrary units. In addition, in data set [8], the “Stability (Arbitrary units) Rat 6 h” value was determined as 80 Arbitrary units and the “Stability (Arbitrary units) Rat 24 h” value turned out to be 62 Arbitrary units.
In the case of `CC[C@H](C)[C@H](NC(=O)CNC(=O)[C@@H](NC(=O)[C@H](Cc1ccccc1)NC(=O)[C@H](CC(C)C)NC(=O)[C@H](CO)NC(=O)[C@H](CC(N)=O)NC(=O)[C@H](C)NC(=O)[C@H](CCCCN)NC(=O)[C@@H](NC(=O)[C@H](Cc1ccc(O)cc1)NC(=O)[C@@H](N)CCC(N)=O)[C@@H](C)CC)[C@@H](C)CC)C(=O)N[C@H](C(=O)N[C@@H](CCC(=O)O)C(=O)N[C@@H](CC(C)C)C(=O)N[C@@H](CCCCN)C(=O)O)[C@@H](C)O` [reference compound] (H-QYIKANSLFIGITELK-OH; N-terminus and C-terminus assumed), the “degradation by Cathepsin D” value in data set [5] (setting [10]) is on record as “completely degraded”.
